Experimental findings from EPA's ToxValDB 9.5 (doi:10.2903/j.efsa.2010.1624) are described below.

Data set [1] deals with Typhlodromus pyri. As to conditions: not reported.
Data set [2] deals with Tagia sp.
Data set [3] relates to Colinus virginianus.
In data set [4] the test system is Plant. As to conditions: chronic/long-term; development.
Data set [5] has as its system Canidae. Particulars: subchronic; duration: 90 days; oral; Dog Other; histopathology: nonneoplastic.
In data set [6] the test system is Anas platyrhynchos. As to conditions: oral, mortality.
Data set [7] deals with Apis mellifera. As to conditions: acute; duration: 48 hours; oral; unspecified; mortality.
For data set [8], the system named is Oncorhynchus mykiss.
Data set [9] concerns Mus musculus. Particulars: acute; oral; mortality.
For data set [10], the system named is Daphnia magna. Particulars: chronic/long-term; duration: 21 days.
Data set [11] has as its system Folsomia candida. As to conditions: chronic/long-term; reproduction.
For data set [12], the system named is Rattus norvegicus.
Setting [13] is: reproduction developmental, reproduction.

Values after ≈ are worked out from the molar mass of the structure shown. Bounds are passed on as bounds.

The NOAEL is the highest tested level that showed no adverse finding. For the compound `CC(C)N1C(=O)N(c2ccccc2)CSC1=NC(C)(C)C` [Buprofezin], the LEL was 3000 g/ha in data set [1] (mortality), 3000 g/ha in data set [1] (reproduction) and above 100 g/ha in [4]. Also, the LC50 in data set [2] (acute, duration: 14 days, mortality) is above 1000 mg/kg; in data set [3] (acute, oral, diet, mortality) it was above 1310 mg/kg-day; in data set [6] (short-term, feed) it was above 1310 mg/kg-day; in [8] (acute, duration: 96 hours, mortality), 0.33 µg/mL (≈ 1.08 µM). Moreover, the NOEC in [2] (chronic/long-term, reproduction) turned out to be 500 mg/kg; in data set [3] (developmental, development) it was 48 mg/kg-day; in [3] (setting [13]) it was 198 mg/kg-day; in [8] (chronic/long-term, growth), 0.052 mg/L; in [10], 0.08 mg/L; in [11] it was 62.5 mg/kg. For the same compound, the LD50 in data set [3] (acute, oral, mortality) was above 2000 mg/kg-day; in data set [6] (acute, unspecified) it was above 2000 mg/kg-day; in data set [7], above 164 µg/piece; in [9] it was above 2000 mg/kg-day; in data set [12] (acute, oral, mortality), above 2000 mg/kg-day. In addition, the NOAEL amounted to 10 mg/kg-day in [5]; 1 mg/kg-day in data set [12] (chronic, duration: 2 years, histopathology: nonneoplastic); 50 mg/kg-day in data set [12] (developmental, development). The same compound gave an NOEL in data set [12] (setting [13]) of 66 mg/kg-day.
